Assay results: patent US6441027B1, “Method of regulating the female reproductive system through angiogenesis inhibitors” (Children's Medical Center Corporation, priority 1996, dated 2002)
Entries after “also recorded” stand apart in the source; their conditions may differ. Like-named read-outs stand apart in the source and are kept apart here.

Legend:
corpora lutea = test: Cycling mice, chronic treatment: examination of the ovaries; assay type: in vivo, mouse; settings: 30 mg/kg every other day for 16 days
Experimental: (§1) Mice were randomized and received either AGM-1470 30 mg/kg s.c. or saline 0.1 ml s.c. every other day for 16 days (approximately four estrous cycles). On the last of four days of treatment mice were housed with male mice to see if successful mating and conception would occur. On day 16 mice were weighed and sacrificed by cervical dislocation. The ovaries were resected enbloc, fixed in Carnoy's fixative, and embedded in paraffin according to standard histologic techniques. Sections were cut at 6 microns and stained with hematoxylin and eosin.

[1] = tested on: bFGF induced neovascularization; test: Mouse corneal micropocket model, bFGF pellet; assay type: in vivo; settings: mouse cornea, n=10/group, p<0.001
Experimental: To confirm that angiogenesis was being inhibited, AGM-1470 was tested in vivo. A mouse corneal micropocket model was used which was recently developed to model tumor angiogenesis. Pellets of bFGF or VEGF were implanted in the mouse cornea resulting in aggressive neovascularization. AGM-1470 inhibited the amount of bFGF or VEGF induced neovascularization by 47% or 62% respectively (n=10/group p<0.001).

inseminated mice = test: Inseminated mice, single low dose 3 mg/kg; assay type: in vivo, mouse
Experimental: The same protocol was followed as was performed for AGM-1470 30 mg/kg except mice were injected with only 3 mg/kg AGM-1470 on E1 or E7. The 10-fold lower dose was tested to determine if a dose in which the fetuses come to term would produce birth defects. Mice were sacrificed at E18 and fetal viability, number of implantation cites, crown-rump length, and tail length were assessed.

female C57BL/6 mice = assay type: in vivo, mouse
Experimental: Group housed female C57BL/6 mice were treated with a single injection of AGM-1470 (30 mg/kg, s.c.) and paired with male breeders at various times after treatment. Treatment groups are designated as the number of days between plugging and treatment. The 6 control groups are combined and expressed as the mean±SD. The number of matings in per group is listed below each labeled group.
The experiment was designed to detect how long before mating a single dose of AGM-1470 might be effective. Sexually mature female mice were treated with a single dose of AGM-1470 (30 mg/kg, s.c.) up to five days prior to mating [designated E(−5), E(−4), E(−3), E(−2), E(−1), or E0 with the date of plugging being E0]. For treatments on E(−5) through E(−1), group-housed female mice were injected with AGM-1470 and then individually paired with male breeders at varying times after injection. For E0 treatment, females were paired with males and then plugged females were injected. Pregnancies were monitored by maternal weights and allowed to go to term. The contraceptive efficacy of a single dose of AGM-1470 on each of these days, calculated by the percentage of matings resulting in any viable deliveries […]. The contraceptive efficacy of a single dose of AGM-1470 on each of these days, expressed as the percentage of matings resulting in viable deliveries is illustrated in FIG. 8.

[2] = tested on: non-pregnant cycling mice; test: Cycling mice, chronic treatment: estrous cycle and mating; assay type: in vivo, mouse
Text: Female mice were housed individually in cages and acclimated for one week. The stage of the estrous cycles was checked by visual inspection of the vagina according to the criteria of Champlin^28 and the examiner was blinded to the treatment group. Determining the stage of the estrous cycle in the mouse by the appearance of the vagina. Animals were monitored daily and graded for color, size of opening, striations and swelling. Based on these observations each individual was assigned to a cycle stage (diestrus, proestrus, estrus, or metestrus).
as §1

angiogenesis = settings: cited from earlier work
gravid uteri = test: Gravid uterine weight after single dose; assay type: in vivo, mouse
Text: C57BL/6 male and female mice greater than seven weeks old were obtained from Takonic (Germantown, N.Y.). The mice were acclimated for at least five days prior to mating and housed in a twelve hour on and twelve hour off light schedule. The mice were mated in the evenings and vaginal plugs were checked for the next morning. Mating in mice is normally detected by the occurrence of vaginal plugs, which are formed by a mixture of the secretions of the vesicular and coagulating glands of the male and usually fill the vagina from cervix to vulva. The day of plugging was labeled Embryonic day 0 (E0). All animal studies were conducted according to the protocols approved by the Animal Ethics Committee of Children's Hospital. Plugged female mice were randomized and received either AGM-1470 30 mg/kg s.c. or saline on E1, 7, or 14. The dependence of female reproductive system on angiogenesis was examined by treating sexually mature inseminated and cycling mice with selective angiogenesis inhibitor AGM-1470.
Gravid uteri and ovaries were resected enbloc and weighed. Gravid uterine weight (grams wet weight, mean SE, n=3/day) in the control group increased exponentially from E6 (0.20±0.01), to E9 (0.53±0.05), E13 (3.78±0.36), and E18 (12.87±0.62). Gravid uterine weights from mice treated with AGM-1470 on E1 had no weight increase after E9 [E6 (0.29±0.01), E9 (0.63±0.01), E13 (0.72±0.08, p<0.05), and E18 (0.68±0.02, p<0.05)]. Gravid uterine weights from mice treated with AGM-1470 on E7 increased initially but then regresses after E13 [E9 (0.71±0.01), E13 (2.03±0.14, p<0.05), and E18 (1.08±0.06, p<0.05)].

SMILES: CO[C@@H]1[C@H](OC(=O)NC(=O)CCl)CC[C@]2(CO2)[C@H]1[C@@]1(C)O[C@@H]1CC=C(C)C [AGM-1470, O-chloroacetylcarbamoyl fumagillol]
- corpora lutea smaller than control (corpora lutea): 61%
- number of corpora lutea (corpora lutea; vs control): fewer; also recorded: decreased size and number of corpora lutea
- inhibition of bFGF induced neovascularization [1]: 47%
- reduction of crown-rump length on E18 relative to control (inseminated mice; 3 mg/kg on E1): 36%
- reduction of tail length relative to control (inseminated mice; 3 mg/kg on E1): 43%
- fetal viability at E18 (inseminated mice; 3 mg/kg on E1 (n=21 fetuses) or E7 (n=8 fetuses)): viable
- crown-rump length on E18 (inseminated mice; 3 mg/kg on E1, n=7 embryos): 13.0±0.1 mm
- birth defects (inseminated mice; 3 mg/kg on E1 or E7, fetuses at E18): no birth defects
- reduction of crown-rump length on E18 relative to control (inseminated mice; 3 mg/kg on E7): 19%
- reduction of tail length relative to control (inseminated mice; 3 mg/kg on E7): 12%
- crown-rump length on E18 (inseminated mice; 3 mg/kg on E7, n=7 embryos): 16.5±0.5 mm
- tail length on E18 (inseminated mice; 3 mg/kg on E7, n=7 embryos): 10.0±0.1 mm
- effect on live births (female C57BL/6 mice; single dose 30 mg/kg s.c. on E0): completely block live births
- effect on live births (female C57BL/6 mice; single dose 30 mg/kg s.c. on E(-1)): completely block live births
- reduction of percentage of animals with successful pregnancies (female C57BL/6 mice; single dose 30 mg/kg s.c. on E(-2)): 80%
- frequency of litters (female C57BL/6 mice; single dose 30 mg/kg s.c. three to five days prior to mating): same frequency as controls
- number of dead births relative to controls (female C57BL/6 mice; single dose 30 mg/kg s.c., any time point E(-5) to E0): No differences
- percentage of mated animals with viable births (female C57BL/6 mice; single dose 30 mg/kg s.c., treatments on E0, E-1 and E-2 (FIG. 8)): inhibition of viable births
- first occurrence of abnormal (closed, red, dry) vaginal morphology ([2]; 30 mg/kg s.c. every other day): 5.6±3.2 days of treatment
- mice with new vaginal morphology within 10 days of start of treatment ([2]; 30 mg/kg s.c. every other day): 8 of 8
- effect on estrous cycle ([2]; 30 mg/kg s.c. every other day for 16 days): interruption of the normal estrous cycle
- time to full recovery after drug was discontinued ([2]; chronic high dose, sexually mature cycling mice): 7 weeks
- successful mating (plugging) ([2]; housed with males on last four days of 16 day treatment): no visually evident plugging
- activity relative to parent compound fumagillin (angiogenesis): 50 times
- gravid uterine weight (gravid uteri; treated on E1, weighed E6, n=3): 0.29±0.01 grams wet weight
- gravid uterine weight (gravid uteri; treated on E1, weighed E9, n=3): 0.63±0.01 grams wet weight
- gravid uterine weight (gravid uteri; treated on E1, weighed E13, n=3): 0.72±0.08 grams wet weight
- gravid uterine weight (gravid uteri; treated on E1, weighed E18, n=3): 0.68±0.02 grams wet weight
- gravid uterine weight (gravid uteri; treated on E7, weighed E9, n=3): 0.71±0.01 grams wet weight
- gravid uterine weight (gravid uteri; treated on E7, weighed E13, n=3): 2.03±0.14 grams wet weight
- gravid uterine weight (gravid uteri; treated on E7, weighed E18, n=3): 1.08±0.06 grams wet weight
